{"source": "ChEMBL document CHEMBL5346921", "about": "“Discovery of novel benzamide derivatives bearing benzamidophenyl and phenylacetamidophenyl scaffolds as potential antitumor agents via targeting PARP-1” (Eur J Med Chem, 2023)", "key": {"HCT-116 [1]": {"system": "HCT-116", "test": "Induction of cell cycle arrest in human HCT-116 cells assessed as accumulation of cells at G2/M phase at 7.5 uM incubated for 72 hrs by PI staining based flow cytometry (reference value: 25.4%)", "type": "functional"}, "HCT-116 [2]": {"system": "HCT-116", "test": "Inhibition of cell migration in human HCT-116 cells at 3 uM incubated for 24 hrs by wound healing assay", "type": "functional"}, "HCT-116 [3]": {"system": "HCT-116", "test": "Induction of cell cycle arrest in human HCT-116 cells assessed as accumulation of cells at G2/M phase at 0.3 uM incubated for 48 hrs by PI staining based flow cytometry (reference value: 24.7%)", "type": "functional"}, "HCT-116 [4]": {"system": "HCT-116", "test": "Induction of cell cycle arrest in human HCT-116 cells assessed as accumulation of cells at S phase at 7.5 uM incubated for 48 hrs by PI staining based flow cytometry (reference value: 14.5%)", "type": "functional"}, "HCT-116 [5]": {"system": "HCT-116", "test": "Induction of cell cycle arrest in human HCT-116 cells assessed as accumulation of cells at S phase at 1.5 uM incubated for 72 hrs by PI staining based flow cytometry (reference value: 16.7%)", "type": "functional"}, "HCT-116 [6]": {"system": "HCT-116", "test": "Induction of mitochondrial membrane potential loss in human HCT-116 cells assessed as JC-1 monomer level by measuring green fluorescence intensity at 3 uM incubated for 48 hrs by JC-1 staining based flow cytometry (reference value: 3.28%)", "type": "functional"}, "[7]": {"test": "Cytotoxicity against human NCM460 cells assessed as reduction in cell viability incubated for 48 hrs by MTT assay", "type": "toxicity, cell-based"}, "HCT-116 [8]": {"system": "HCT-116", "test": "Induction of apoptosis in human HCT-116 cells assessed as early apoptotic cells at 0.3 uM incubated for 72 hrs by AnnexinV-FITC/PI staining based analysis (reference value: 1.05%)", "type": "functional"}, "HCT-116 [9]": {"system": "HCT-116", "test": "cells", "details": "Homo sapiens, HCT-116, 48 h"}, "HCT-116 [10]": {"system": "HCT-116", "test": "Induction of cell cycle arrest in human HCT-116 cells assessed as accumulation of cells at G0/G1 phase at 7.5 uM incubated for 48 hrs by PI staining based flow cytometry (reference value: 62.1%)", "type": "functional"}, "[11]": {"biological_target": "Poly [ADP-ribose] polymerase 1 (Homo sapiens, UniProt P09874)", "sequence (P09874 whole entry)": "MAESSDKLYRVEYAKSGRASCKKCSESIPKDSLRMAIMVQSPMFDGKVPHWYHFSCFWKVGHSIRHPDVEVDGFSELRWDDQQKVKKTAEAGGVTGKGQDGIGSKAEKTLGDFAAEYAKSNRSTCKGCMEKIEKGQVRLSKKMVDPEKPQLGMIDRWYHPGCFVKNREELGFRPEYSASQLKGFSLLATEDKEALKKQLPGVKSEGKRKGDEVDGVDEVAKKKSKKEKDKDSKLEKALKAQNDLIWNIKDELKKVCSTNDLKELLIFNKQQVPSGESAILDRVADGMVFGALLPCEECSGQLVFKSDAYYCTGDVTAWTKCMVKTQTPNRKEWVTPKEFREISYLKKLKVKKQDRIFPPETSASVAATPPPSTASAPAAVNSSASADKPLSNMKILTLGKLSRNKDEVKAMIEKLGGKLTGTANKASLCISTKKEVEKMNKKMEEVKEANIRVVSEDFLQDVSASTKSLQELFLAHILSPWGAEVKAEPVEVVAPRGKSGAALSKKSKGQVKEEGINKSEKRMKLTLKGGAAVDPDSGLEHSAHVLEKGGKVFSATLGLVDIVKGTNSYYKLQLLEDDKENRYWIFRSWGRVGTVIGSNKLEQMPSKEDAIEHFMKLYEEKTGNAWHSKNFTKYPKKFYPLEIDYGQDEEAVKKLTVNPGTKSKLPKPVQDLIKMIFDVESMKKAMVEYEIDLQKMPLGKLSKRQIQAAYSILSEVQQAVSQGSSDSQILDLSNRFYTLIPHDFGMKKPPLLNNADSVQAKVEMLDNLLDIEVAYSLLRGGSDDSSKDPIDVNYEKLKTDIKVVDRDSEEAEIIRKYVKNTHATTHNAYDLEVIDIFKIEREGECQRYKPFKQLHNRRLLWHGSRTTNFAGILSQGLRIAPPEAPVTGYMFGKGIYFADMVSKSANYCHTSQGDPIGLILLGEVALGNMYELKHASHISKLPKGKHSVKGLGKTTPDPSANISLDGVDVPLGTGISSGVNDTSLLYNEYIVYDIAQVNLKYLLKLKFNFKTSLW", "test": "Inhibition of human PARP-1 by ELISA"}, "HCT-116 [12]": {"system": "HCT-116", "test": "Induction of mitochondrial membrane potential loss in human HCT-116 cells assessed as increase in monomer JC-1 level by measuring green fluorescence intensity at 3 uM incubated for 48 hrs by immunofluorescence analysis", "type": "functional, cell-based"}, "HCT-116 [13]": {"system": "HCT-116", "test": "Inhibition of colony formation in human HCT-116 cells at 3 uM pretreated for 48 hrs followed by replacement of fresh medium and measured every 3 days by crystal violet staining based analysis", "type": "functional"}, "HCT-116 [14]": {"system": "HCT-116", "test": "Induction of cell cycle arrest in human HCT-116 cells assessed as accumulation of cells at G0/G1 phase at 1.5 uM incubated for 72 hrs by PI staining based flow cytometry (reference value: 57.2%)", "type": "functional"}, "HCT-116 [15]": {"system": "HCT-116", "test": "Induction of apoptosis in human HCT-116 cells assessed as necrotic cells at 0.3 uM incubated for 72 hrs by AnnexinV-FITC/PI staining based analysis (reference value: 0%)", "type": "functional"}, "HCT-116 [16]": {"system": "HCT-116", "test": "Induction of cell cycle arrest in human HCT-116 cells assessed as accumulation of cells at S phase at 0.3 uM incubated for 48 hrs by PI staining based flow cytometry (reference value: 14.5%)", "type": "functional"}, "HCT-116 [17]": {"system": "HCT-116", "test": "Inhibition of cell migration in human HCT-116 cells at 1 uM incubated for 48 hrs by wound healing assay", "type": "functional"}, "HCT-116 [18]": {"system": "HCT-116", "test": "Induction of apoptosis in human HCT-116 cells assessed as late apoptotic cells at 1.5 uM incubated for 72 hrs by AnnexinV-FITC/PI staining based analysis (reference value: 0%)", "type": "functional"}, "HCT-116 [19]": {"system": "HCT-116", "test": "Induction of cell cycle arrest in human HCT-116 cells assessed as accumulation of cells at G0/G1 phase at 1.5 uM incubated for 48 hrs by PI staining based flow cytometry (reference value: 62.1%)", "type": "functional"}, "HCT-116 [20]": {"system": "HCT-116", "test": "Induction of apoptosis in human HCT-116 cells assessed as early apoptotic cells at 7.5 uM incubated for 48 hrs by AnnexinV-FITC/PI staining based flow cytometry (reference value: 2.11%)", "type": "functional"}, "HCT-116 [21]": {"system": "HCT-116", "test": "Induction of mitochondrial membrane potential loss in human HCT-116 cells assessed as JC-1 aggregate level by measuring red fluorescence intensity at 0.3 uM incubated for 48 hrs by JC-1 staining based flow cytometry (reference value: 96.72%)", "type": "functional"}, "HCT-116 [22]": {"system": "HCT-116", "test": "Induction of apoptosis in human HCT-116 cells assessed as necrotic cells at 1.5 uM incubated for 72 hrs by AnnexinV-FITC/PI staining based analysis (reference value: 0%)", "type": "functional"}, "HCT-116 [23]": {"system": "HCT-116", "test": "Inhibition of cell migration in human HCT-116 cells at 0.3 uM incubated for 48 hrs by wound healing assay", "type": "functional"}, "HCT-116 [24]": {"system": "HCT-116", "test": "Induction of apoptosis in human HCT-116 cells assessed as late apoptotic cells at 7.5 uM incubated for 48 hrs by AnnexinV-FITC/PI staining based flow cytometry (reference value: 0%)", "type": "functional"}, "HCT-116 [25]": {"system": "HCT-116", "test": "Induction of mitochondrial membrane potential loss in human HCT-116 cells assessed as JC-1 monomer level by measuring green fluorescence intensity at 1 uM incubated for 48 hrs by JC-1 staining based flow cytometry (reference value: 3.28%)", "type": "functional"}, "HCT-116 [26]": {"system": "HCT-116", "test": "Inhibition of cell migration in human HCT-116 cells at 1 uM incubated for 24 hrs by wound healing assay", "type": "functional"}, "HCT-116 [27]": {"system": "HCT-116", "test": "Induction of mitochondrial membrane potential loss in human HCT-116 cells assessed as JC-1 aggregate level by measuring red fluorescence intensity at 3 uM incubated for 48 hrs by JC-1 staining based flow cytometry (reference value: 96.72%)", "type": "functional"}, "HCT-116 [28]": {"system": "HCT-116", "test": "Inhibition of cell migration in human HCT-116 cells at 0.3 uM incubated for 24 hrs by wound healing assay", "type": "functional"}, "HCT-116 [29]": {"system": "HCT-116", "test": "Induction of apoptosis in human HCT-116 cells assessed as necrotic cells at 7.5 uM incubated for 72 hrs by AnnexinV-FITC/PI staining based analysis (reference value: 0%)", "type": "functional"}, "HCT-116 [30]": {"system": "HCT-116", "test": "Induction of cell cycle arrest in human HCT-116 cells assessed as accumulation of cells at G2/M phase at 0.3 uM incubated for 72 hrs by PI staining based flow cytometry (reference value: 25.4%)", "type": "functional"}, "HCT-116 [31]": {"system": "HCT-116", "test": "Induction of cell cycle arrest in human HCT-116 cells assessed as accumulation of cells at G0/G1 phase at 0.3 uM incubated for 72 hrs by PI staining based flow cytometry (reference value: 57.2%)", "type": "functional"}, "[32]": {"biological_target": "Poly [ADP-ribose] polymerase 2 (Homo sapiens, UniProt Q9UGN5)", "sequence (Q9UGN5 whole entry)": "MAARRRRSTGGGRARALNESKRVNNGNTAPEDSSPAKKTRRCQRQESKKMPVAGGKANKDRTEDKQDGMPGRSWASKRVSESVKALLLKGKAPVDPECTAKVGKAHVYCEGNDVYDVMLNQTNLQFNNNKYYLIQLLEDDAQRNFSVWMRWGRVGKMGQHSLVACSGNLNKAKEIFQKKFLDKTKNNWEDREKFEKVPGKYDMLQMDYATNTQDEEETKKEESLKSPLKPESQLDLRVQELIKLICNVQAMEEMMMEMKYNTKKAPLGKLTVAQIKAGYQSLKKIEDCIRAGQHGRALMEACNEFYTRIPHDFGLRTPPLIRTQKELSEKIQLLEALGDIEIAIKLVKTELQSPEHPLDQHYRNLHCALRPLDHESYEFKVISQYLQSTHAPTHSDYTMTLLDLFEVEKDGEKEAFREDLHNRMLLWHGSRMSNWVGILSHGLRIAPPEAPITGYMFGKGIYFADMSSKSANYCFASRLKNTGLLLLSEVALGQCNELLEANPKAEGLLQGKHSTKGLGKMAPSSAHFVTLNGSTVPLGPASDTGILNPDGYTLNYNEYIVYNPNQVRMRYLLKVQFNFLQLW", "test": "Inhibition of human PARP-2 by ELISA"}, "HCT-116 [33]": {"system": "HCT-116", "test": "Induction of cell cycle arrest in human HCT-116 cells assessed as accumulation of cells at S phase at 7.5 uM incubated for 72 hrs by PI staining based flow cytometry (reference value: 16.7%)", "type": "functional"}, "HCT-116 [34]": {"system": "HCT-116", "test": "Induction of apoptosis in human HCT-116 cells assessed as viable cells at 7.5 uM incubated for 48 hrs by AnnexinV-FITC/PI staining based flow cytometry (reference value: 97.89%)", "type": "functional", "details": "read-out: Activity"}, "HCT-116 [35]": {"system": "HCT-116", "test": "Induction of mitochondrial membrane potential loss in human HCT-116 cells assessed as JC-1 monomer level by measuring green fluorescence intensity at 0.3 uM incubated for 48 hrs by JC-1 staining based flow cytometry (reference value: 3.28%)", "type": "functional"}}, "note": "Active and inactive are the calls of the source. The calls are words filed in the database; no cut-off is given here."}
{"smiles": "NC(=O)c1ccccc1OCc1cccc(NC(=O)c2ccc(Br)cc2)c1", "values": [{"measurement": "Activity", "setting": "HCT-116 [1]", "result": 45.5, "unit": "%"}, {"measurement": "inhibition at 3 µM", "setting": "HCT-116 [2]", "result": 22.3, "unit": "%"}, {"measurement": "Activity", "setting": "HCT-116 [3]", "result": 28.6, "unit": "%"}, {"measurement": "Activity", "setting": "HCT-116 [4]", "result": 10.4, "unit": "%"}, {"measurement": "Activity", "setting": "HCT-116 [5]", "result": 15.6, "unit": "%"}, {"measurement": "Activity", "setting": "HCT-116 [6]", "result": 50.03, "unit": "%"}, {"measurement": "IC50 at 48 h", "setting": "[7]", "result": 487000, "unit": "nM"}, {"measurement": "Activity", "setting": "HCT-116 [8]", "result": 23.69, "unit": "%"}, {"measurement": "IC50", "setting": "HCT-116 [9]", "result": 300, "unit": "nM"}, {"measurement": "Activity", "setting": "HCT-116 [10]", "result": 49.7, "unit": "%"}, {"measurement": "IC50", "setting": "[11]", "result": 0.25, "unit": "nM"}, {"measurement": "Activity", "setting": "HCT-116 [12]", "result": "Active"}, {"measurement": "inhibition at 3 µM", "setting": "HCT-116 [13]", "result": 100, "unit": "%"}, {"measurement": "Activity", "setting": "HCT-116 [14]", "result": 45.1, "unit": "%"}, {"measurement": "Activity", "setting": "HCT-116 [15]", "result": 0, "unit": "%"}, {"measurement": "Activity", "setting": "HCT-116 [16]", "result": 11, "unit": "%"}, {"measurement": "inhibition at 1 µM", "setting": "HCT-116 [17]", "result": 36.3, "unit": "%"}, {"measurement": "Activity", "setting": "HCT-116 [18]", "result": 0.26, "unit": "%"}, {"measurement": "Activity", "setting": "HCT-116 [19]", "result": 56.6, "unit": "%"}, {"measurement": "Activity", "setting": "HCT-116 [20]", "result": 40.9, "unit": "%"}, {"measurement": "Activity", "setting": "HCT-116 [21]", "result": 90.62, "unit": "%"}, {"measurement": "Activity", "setting": "HCT-116 [22]", "result": 0.01, "unit": "%"}, {"measurement": "inhibition at 0.3 µM", "setting": "HCT-116 [23]", "result": 30.5, "unit": "%"}, {"measurement": "Activity", "setting": "HCT-116 [24]", "result": 1.19, "unit": "%"}, {"measurement": "Activity", "setting": "HCT-116 [25]", "result": 14.16, "unit": "%"}, {"measurement": "inhibition at 1 µM", "setting": "HCT-116 [26]", "result": 18, "unit": "%"}, {"measurement": "Activity", "setting": "HCT-116 [27]", "result": 49.97, "unit": "%"}, {"measurement": "inhibition at 0.3 µM", "setting": "HCT-116 [28]", "result": 12.4, "unit": "%"}, {"measurement": "Activity", "setting": "HCT-116 [29]", "result": 0.01, "unit": "%"}, {"measurement": "Activity", "setting": "HCT-116 [30]", "result": 29.6, "unit": "%"}, {"measurement": "Activity", "setting": "HCT-116 [31]", "result": 46.9, "unit": "%"}, {"measurement": "IC50", "setting": "[32]", "result": 2.34, "unit": "nM"}, {"measurement": "Activity", "setting": "HCT-116 [33]", "result": 20.3, "unit": "%"}, {"measurement": "viability at 7.5 µM", "setting": "HCT-116 [34]", "result": 57.4, "unit": "%"}, {"measurement": "Activity", "setting": "HCT-116 [35]", "result": 9.38, "unit": "%"}]}
